Results as given in PubChem BioAssay (NCI).
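Assay format: 96-well plates, 48-hour exposure. At the TGI there is no net growth.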

How the values were obtained:
RXF-631 renal = test: inhibition of tumour cell growth, NCI panel, 48 h
SR leukemia = test: inhibition of tumour cell growth, NCI panel, 48 h

| Structure (SMILES) | TGI (RXF-631 renal) [µM] | TGI (SR leukemia) [µM] |
| --- | --- | --- |
| COC(=O)NN1C(=O)C(=P(c2ccccc2)(c2ccccc2)c2ccccc2)C(C(=O)OC)=C1C | > 100 | – |
| Cn1c(=O)c2nc(N3CCCCC3)cnc2n(C)c1=O | – | > 100 |
